Test results from patent US20240342190A1, “METHODS FOR REDUCING ISCHEMIA-REPERFUSION INJURIES” (BioMimetix JV, LLC, priority 2023, published 2024).
“Also recorded” adds a separate entry of the source.

Experiments:
[1] = test system: blood brain barrier; test: Experiment 7: blood brain barrier permeability after intracarotid infusion (Evans blue content); details: non-stroke rats, vs vehicle
Method: 30 μg/kg of BMX-001 (n=4), or same amount of saline (n=4) or mannitol (n=4) was given to normal male Wistar rats through the carotid artery. The rats received 100 μl 2% Evans blue intravenous infusion 30 min later and then intracardially perfused using 100 ml normal saline at 30 min following infusion. Brains were harvested and the Evans blue content was measured spectrophotometrically.

[2] = test system: animal model of ischemic stroke; details: given 6 hours after reperfusion; cited from earlier work

Row | Structure (SMILES) | Evans blue content in brain / blood brain barrier permeability, in words [1] | Protection in ischemic stroke, in words [2]
1 | OC[C@@H](O)[C@@H](O)[C@H](O)[C@H](O)CO [Mannitol, reference compound] | significant increase of Evans blue content; also recorded: did increase the blood brain barrier (BBB) permeability | 
2 | CC[n+]1ccccc1-c1c2nc(c(-c3cccc[n+]3CC)c3ccc([n-]3)c(-c3cccc[n+]3CC)c3nc(c(-c4cccc[n+]4CC)c4ccc1[n-]4)C=C3)C=C2.[Mn+3] [MnTE-2-PyP^5+] |  | provided protection
